Test results as given in the supplement of paper PMC10307832.

Columns and labels:
Experiment in all cases: relative viability (nuclei count vs DMSO), 5 days (fraction); higher = more cells survive
GW-2580 + Vorinostat = compound: COC1=CC=C(C=C1)COC2=C(C=C(C=C2)CC3=CN=C(N=C3N)N)OC [GW-2580] + O=C(CCCCCCC(=O)Nc1ccccc1)NO [Vorinostat] (partner 1 µM)
In short: (§1)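 Lung cancer cell lines, seeded in 1536-well plates, were treated the following day by pin tool with a single drug or with five library-drug doses (not always all listed) in √10 steps on top of a fixed anchor-drug dose. Cells were fixed and nuclei stained in one step after 5 days, and nuclei were counted. Relative viability is the nuclei count for treated wells divided by that for vehicle wells, reported as medians of duplicate plates.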

Fedratinib + Dasatinib = compound: Cc1cnc(Nc2ccc(OCCN3CCCC3)cc2)nc1Nc1cccc(S(=O)(=O)NC(C)(C)C)c1 [Fedratinib] + Cc1nc(Nc2ncc(C(=O)Nc3c(C)cccc3Cl)s2)cc(N2CCN(CCO)CC2)n1 [Dasatinib] (partner 0.075 µM)
In short: as §1

GW-2580 + Lapatinib = compound: COC1=CC=C(C=C1)COC2=C(C=C(C=C2)CC3=CN=C(N=C3N)N)OC [GW-2580] + CS(=O)(=O)CCNCc1ccc(-c2ccc3ncnc(Nc4ccc(OCc5cccc(F)c5)c(Cl)c4)c3c2)o1 [Lapatinib] (partner 2 µM)
In short: as §1

GW-2580 + Navitoclax = compound: COC1=CC=C(C=C1)COC2=C(C=C(C=C2)CC3=CN=C(N=C3N)N)OC [GW-2580] + CC1(C)CCC(c2ccc(Cl)cc2)=C(CN2CCN(c3ccc(C(=O)NS(=O)(=O)c4ccc(N[C@H](CCN5CCOCC5)CSc5ccccc5)c(S(=O)(=O)C(F)(F)F)c4)cc3)CC2)C1 [Navitoclax] (partner 0.5 µM)
In short: as §1

Fedratinib + Luminespib = compound: Cc1cnc(Nc2ccc(OCCN3CCCC3)cc2)nc1Nc1cccc(S(=O)(=O)NC(C)(C)C)c1 [Fedratinib] + CCNC(=O)c1noc(-c2cc(C(C)C)c(O)cc2O)c1-c1ccc(CN2CCOCC2)cc1 [Luminespib] (partner 0.01 µM)
In short: as §1

| Cell Line | relative viability (GW-2580 + Vorinostat; first compound 0.08 µM) | relative viability (GW-2580 + Vorinostat; first compound 0.8 µM) | relative viability (GW-2580 + Vorinostat; first compound 2.53 µM) | relative viability (GW-2580 + Vorinostat; first compound 8 µM) | relative viability (Fedratinib + Dasatinib; first compound 0.1 µM) | relative viability (Fedratinib + Dasatinib; first compound 0.3162 µM) | relative viability (Fedratinib + Dasatinib; first compound 1 µM) | relative viability (GW-2580 + Lapatinib; first compound 0.08 µM) | relative viability (GW-2580 + Lapatinib; first compound 0.8 µM) | relative viability (GW-2580 + Lapatinib; first compound 2.53 µM) | relative viability (GW-2580 + Lapatinib; first compound 8 µM) | relative viability (GW-2580 + Navitoclax; first compound 0.08 µM) | relative viability (GW-2580 + Navitoclax; first compound 0.8 µM) | relative viability (GW-2580 + Navitoclax; first compound 2.53 µM) | relative viability (GW-2580 + Navitoclax; first compound 8 µM) | relative viability (Fedratinib + Luminespib; first compound 0.1 µM) | relative viability (Fedratinib + Luminespib; first compound 0.3162 µM) | relative viability (Fedratinib + Luminespib; first compound 1 µM) |
| --- | --- | --- | --- | --- | --- | --- | --- | --- | --- | --- | --- | --- | --- | --- | --- | --- | --- | --- |
| NCI-H1975 | 0.755 | 0.75 | 0.654 | 0.647 | 0.329 | 0.362 | 0.285 | 0.925 | 1.09 | 0.885 | 0.834 | 1.2 | 1.3 | 1.21 | 0.98 | 0.235 | 0.266 | 0.178 |
| CAL-12T | 0.777 | 0.697 | 0.978 | 0.859 | 0.47 | 0.277 | 0.285 | 0.601 | 0.662 | 0.545 | 0.735 | 1.27 | – | 1.22 | 1.34 | 0.175 | 0.617 | 0.361 |
| NCI-H1623 | – | – | – | – | 0.339 | 0.45 | 0.408 | – | – | – | – | – | – | – | – | 0.703 | 0.485 | 0.505 |
| HCC-44 | 1.13 | 1.08 | 1.19 | 1.1 | – | – | – | 1.12 | 1.06 | 0.923 | 1.04 | 1.09 | 1.03 | 0.97 | 0.897 | 1.01 | 0.974 | 0.972 |
| EKVX | 0.711 | 0.951 | 0.808 | 0.679 | 0.498 | 0.681 | 0.532 | 0.181 | 0.236 | 0.189 | 0.18 | 0.977 | 1.03 | 0.732 | 0.925 | 0.888 | 0.866 | 0.934 |
| NCI-H1651 | 0.516 | 0.636 | 0.534 | 0.555 | 0.437 | 0.418 | 0.329 | 1.08 | 0.909 | 0.778 | 0.956 | 1.04 | 1.15 | 0.95 | 1.18 | 0.764 | 0.716 | 1.09 |
| NCI-H1944 | 0.551 | 0.53 | 0.513 | 0.52 | 0.21 | 0.235 | 0.196 | 0.843 | 0.98 | 0.82 | 0.897 | 1.09 | 1.1 | 1.03 | 0.988 | 0.741 | 0.801 | 0.763 |
| NCI-H1703 | – | – | – | – | – | – | – | 1.1 | 1.32 | 1.2 | 0.946 | 1.11 | 1.15 | 1.1 | 1.06 | – | – | – |
| Calu-6 | – | – | – | – | – | – | – | 1.14 | 1.18 | 1.06 | 1.08 | 0.932 | 0.868 | 0.782 | 0.877 | – | – | – |
